Measurements from patent US12617777B2, “GPR84 antagonists and uses thereof” (Liminal BioSciences Limited, priority 2021, dated 2026).

Biological target: T1, human GPR84 receptor (Homo sapiens, UniProt Q9NQS5)
T1 construct: host or cells: HEK293, transient transfection
Test: Gαi biosensor BRET assay in HEK293 cells (antagonism of ZQ-16)
Assay type: cell-based
Conditions: for inhibition at 10 µM: HEK293, single concentration 10 μM (designated F); for IC50: HEK293 cells, antagonism of 200 nmol/L ZQ-16; for inhibition at 2 µM: HEK293, single concentration 2 μM (designated A); for inhibition at 5 µM: HEK293, single concentration 5 μM (designated D)
Excerpt: Background—The following assays can be used for determination of GPR84 activation in living HEK293 cells. The Gai BRET biosensor (Gagnon et al., 2018; Gales et al., 2006. Nat StructMol Biol. 13, 778-86; Saulieres et al., 2012. Nat Chem Biol. 8, 622-30) allows to directly monitor GPR84-mediated activation of Gai. The Gai biosensor consists of a Rluc8-tagged Gαi2 subunit, a GFP10-tagged Gγ2 subunit, and an untagged Gβ1. Agonist stimulation and GPR84 activation triggers a physical separation between the RLuc8-Gαi donor and the GFP10-Gγ2 acceptor, resulting in a decrease in BRET signal whose amplitude is correlated to ligand efficacy (Gales et al., 2006). Moreover, signaling functions of GPCRs are tightly regulated by endocytosis, the targeting of receptors to endosomes and their sorting to lysosomes or recycling to the plasma membrane. The early endosomes (EEs) trafficking assay (Namkung et al., 2016. Nat Commun. 7, 12178) uses Rluc8-tagged GPR84 and Renilla GFP (rGFP) attached to the FYVE domain from human endofin/zinc finger FYVE domain-containing protein 16, which binds phosphatidylinositol 3-phosphate in EEs. Agonist stimulation of GPR84-Rluc8 leads to trafficking of the receptor to EEs, and ensuing increase of the donor concentration relative to the rGFP-FYVE acceptor anchored in the same cellular compartment, and thus results in an increase in BRET signal.
Plasmids—The cDNA clones for human GPR84 receptor, human Gai2, Gp1, and Gy2 were obtained from the cDNA Resource Center (www.cdna.org). GFP10 (F64L, S147P, S202F and H231L variant of Aequorea victoria Green Fluorescent Protein) gBlocks gene fragments (Integrated DNA Technologies, IA) and linker were inserted in frame at the N-terminus of human Gγ2. Rluc8 (A55T, C124A, S130A, K136R, A143M, M185V, M253L, and S287L variant of the Renilla renformis luciferase) gBlocks gene fragment was inserted with linkers in frame in between residues 91 and 92 of Gai2 or at the C-terminus of GPR84. The FYVE domain from human endofin (residues Q739 to K806) attached in frame at the C terminus of a humanized Renilla GFP (rGFP), were synthesized as gBlocks gene fragments.
Bioluminescence Resonance Energy Transfer (BRET) Measurement—HEK293 cells were transfected with GPR84-Rluc8 and rGFP-FYVE for the EEs trafficking biosensor or with GPR84, Gαi2-Rluc8, GFP10-Gγ2, and Gβ1 for the Gαi biosensor. The following day, transiently transfected cells were seeded in 96-well white clear bottom microplates coated with poly-D-lysine and left in culture for 24 hours. Cells were washed once with Tyrode's buffer (140 mmol/L NaCl, 1 mmol/L CaCl2, 2.7 mmol/L KCl, 0.49 mmol/L MgCl2, 0.37 mmol/L NaH2PO4, 5.6 mmol/L glucose, 12 mmol/L NaHCO3, and 25 mmol/L HEPES, pH 7.5) before performing assays in Tyrode's buffer. Test compounds were incubated with cells for 5 (Gαi) or 15 (EEs) minutes at 37° C. before addition of 200 nmol/L of the GPR84 agonist ZQ-16 (2-(Hexylthio)-6-hydroxy-4(3H)-pyrimidinone) for 5 minutes at room temperature (Gαi) or 30 minutes at 37° C. (EEs). The Rluc8 substrate coelenterazine 400A (Prolume, Lakeside, AZ) was added at a final concentration of 5 μmol/L and BRET readings were collected using an Infinite M1000 microplate reader (Tecan, Morrisville, NC). BRET^2 readings between Rluc8 and GFP10 or rGFP were collected by sequential integration of the signals detected in the 370 to 450 nm (Rluc8) and 510 to 540 nm (GFP10, rGFP) windows. The BRET signal was calculated as the ratio of light emitted by acceptor (GFP10, rGFP) over the light emitted by donor (Rluc8). The values were corrected to net BRET by subtracting the background BRET signal obtained in cells transfected with Rluc8 constructs alone. Ligand-promoted net BRET values were calculated by subtracting vehicle-induced net BRET from ligand-induced net BRET.

T1 sequence (Q9NQS5 whole entry): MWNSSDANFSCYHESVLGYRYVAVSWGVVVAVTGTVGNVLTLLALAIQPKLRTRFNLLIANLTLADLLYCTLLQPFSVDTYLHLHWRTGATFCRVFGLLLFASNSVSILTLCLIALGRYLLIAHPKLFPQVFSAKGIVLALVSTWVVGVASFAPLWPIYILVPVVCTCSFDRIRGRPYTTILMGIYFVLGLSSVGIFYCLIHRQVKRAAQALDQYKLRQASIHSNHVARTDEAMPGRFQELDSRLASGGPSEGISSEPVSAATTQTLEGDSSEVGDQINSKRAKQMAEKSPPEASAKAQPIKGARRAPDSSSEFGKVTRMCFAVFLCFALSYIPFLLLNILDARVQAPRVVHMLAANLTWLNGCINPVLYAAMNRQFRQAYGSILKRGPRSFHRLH

Row | inhibition at 10 µM | IC50 | other results | Compound
1 | > 75% |  |  | COC(=O)NCC#Cc1cnc(-c2cn(CC3CCCCO3)nn2)c(C)c1 (centres unmarked) [Compound I-573]
2 | 50 to 75% |  |  | FC1(F)CC(C#Cc2cnc(-c3cn(CC4OCC5(CC5)CO4)nn3)c(OC3CC3)c2)C1 (centres unmarked) [Compound I-862]
3 | 50 to 75% |  |  | Cc1cc(C#CC2CC2)cnc1-c1cn(CC2OCCCO2)nn1 [Compound I-414]
4 |  |  | inhibition at 25 µM (HEK293, single concentration 25 μM (designated I)): 25 to 50% | O=c1oc(CC2CCCCO2)nn1-c1ccc(C#CC2CC2)cc1 (centres unmarked) [Compound I-11]
5 | > 75% | 1 to 3 µM |  | Cc1cc(N2CCCC(N(C)Cc3ccccc3)C2)ccc1-c1cn(CC2CCCCO2)nn1 (centres unmarked) [Compound I-171]
6 | > 75% |  |  | Cc1ccc(C#CC2CC2)cc1Sc1cn(CC2OCC(C)(C)CO2)nn1 [Compound I-781, 4-((5-(cyclopropylethynyl)-2-methylphenyl)thio)-1-((5,5-dimethyl-1,3-dioxan-2-yl)methyl)-1H-1,2,3-triazole]
7 |  |  | inhibition at 2 µM: > 75% | CC(C)Oc1cc(N2CC(C)(CO)C2)cnc1-c1cn(CC2OCC3(CCC3)O2)nn1 (centres unmarked) [Compound I-809]
8 | > 75% | 0.3 to 1 µM |  | Cc1cc(N2CC(C)(OCc3ccccn3)C2)c(F)cc1-c1cn(CC2CCCCO2)nn1 (centres unmarked) [Compound I-731]
9 |  | ≤ 0.3 µM | inhibition at 2 µM: > 75% | CC1(C)COC(Cn2cc(-c3ccc(N4CCN(Cc5ccccn5)CC4)cc3CC(F)(F)F)nn2)OC1 [Compound I-747]
10 | > 75% |  |  | COC(Cc1cc(C#CC2CC2)ccc1C)c1cn(CC2OCC(C)(C)CO2)nn1 (centres unmarked) [Compound I-753]
11 | > 75% |  |  | Cc1cc(N2CC(C)(CO)C2)ccc1-c1cn(CC2CCCCO2)nn1 (centres unmarked) [Compound I-263]
12 |  | ≤ 0.3 µM |  | CC1(C)COC(Cn2cc(-c3ncc(C#CCNCc4ccccn4)cc3OC3CC3)nn2)OC1 [Compound I-772]
13 | > 75% |  |  | CC1(CO)CN(c2cnc(-c3cn(CC4OCC5(CCC5)O4)nn3)c(OCC(F)(F)F)c2)C1 (centres unmarked) [Compound I-816]
14 | 25 to 50% | > 3 µM |  | COc1cc(C#CC2CC2)ccc1-c1cn(CC2CCCCO2)nn1 (centres unmarked) [Compound I-82]
15 | ≤ 25% |  |  | Cc1cc(N2CC3(C2)CN(c2ccccn2)C3)ccc1-c1cn(CC2CCCCO2)nn1 (centres unmarked) [Compound I-652]
16 |  |  | inhibition at 5 µM: ≤ 25% | Cc1c(-c2ccc(OCc3ccccc3)cc2)nnn1CC1CCCCO1 (centres unmarked) [Compound I-46]
17 | ≤ 25% |  |  | C(#CC1CC1)c1ccc2c(c1)CCn1nc(OC[C@H]3COCCO3)cc1-2 (stereo in doubt) [Compound I-332, 2-((1,4-dioxan-2-yl)methoxy)-8-(cyclopropylethynyl)-5,6-dihydropyrazolo[5,1-a]isoquinoline]
18 | ≤ 25% |  |  | COC(=O)N1CCC(c2ccc(-c3cn(CC4CCCCO4)nn3)c(C)c2)CC1 (centres unmarked) [Compound I-484]
19 | > 75% |  |  | CC1(CO)CN(c2cnc(-c3cn(CC4OCC5(CCC5)O4)nn3)c(Cl)c2)C1 (centres unmarked) [Compound I-807]
20 | 50 to 75% |  |  | CC(c1ccc(C#CC2CC2)cc1)c1cn(CC2CCCCO2)nn1 (centres unmarked) [Compound I-313]
21 | ≤ 25% |  |  | C(#CC1CC1)c1ccc(-c2cn(CC3CCCCO3)nn2)c(N2CCC2)c1 (centres unmarked) [Compound I-199]
22 | > 75% |  |  | Cc1c(C#CC2CC2)cccc1C(C)c1cn(C[C@H]2CCCCO2)nn1 (some centres unmarked) [Compound I-741]
23 | > 75% | 0.3 to 1 µM |  | Cc1cc(C#CCNC2CC2)ccc1-c1cn(CC2OCC(C)(C)CO2)nn1 [Compound I-697]
24 |  | 1 to 3 µM | inhibition at 5 µM: 50 to 75% | Cc1cc(C#CC2CC2)ccc1-c1cn(C[C@H]2CCCCO2)nn1 [Compound I-175]
25 | > 75% | > 3 µM |  | Cc1cc(C#CC2CC(F)(F)C2)ccc1-c1cn(CC2OCC(C)(C)CO2)nn1 [Compound I-662]
